Laboratory results from the NIST ThermoML archive (doi:10.1021/je7006549).

Experiment: mn = molality of the nth substance listed, in mol/kg
Settings: 101 kPa, Liquid

Cc1cccc(C)c1 [1,3-dimethylbenzene] + CC1=CC(=O)c2ccccc2C1=O
m2 = 0
Settings	mass density [kg/m3]	viscosity [mPa·s]
303.15 K	855.6	0.549
308.15 K	851.1	0.5201
313.15 K	846.9	0.4967
318.15 K	842.4	0.4817
323.15 K	838.3	0.444
328.15 K	833.7	0.435
333.15 K	829.6	0.413

CC1=CC(=O)c2ccccc2C1=O [2-methyl-1,4-naphthalenedione] + c1ccccc1
Settings	mass density [kg/m3]	viscosity [mPa·s]
303.15 K, m1 = 0.0334	869.4	0.5788
303.15 K, m1 = 0.0889	871.8	0.5842
303.15 K, m1 = 0.1332	873.7	0.588
303.15 K, m1 = 0.1778	875.6	0.5927
303.15 K, m1 = 0.2215	877.5	0.6006
303.15 K, m1 = 0.2681	879.5	0.6063
308.15 K, m1 = 0.0334	863.6	0.5408
308.15 K, m1 = 0.0889	866	0.5443
308.15 K, m1 = 0.1332	867.9	0.5484
308.15 K, m1 = 0.1778	869.8	0.5519
308.15 K, m1 = 0.2215	871.7	0.5598
308.15 K, m1 = 0.2681	873.7	0.5667
313.15 K, m1 = 0.0334	858.4	0.5057
313.15 K, m1 = 0.0889	860.8	0.5096
313.15 K, m1 = 0.1332	862.7	0.5142
313.15 K, m1 = 0.1778	864.6	0.5189
313.15 K, m1 = 0.2215	866.5	0.5242
313.15 K, m1 = 0.2681	868.5	0.5309
318.15 K, m1 = 0.0334	853	0.4782
318.15 K, m1 = 0.0889	855.4	0.4811
318.15 K, m1 = 0.1332	857.3	0.4847
318.15 K, m1 = 0.1778	859.2	0.4893
318.15 K, m1 = 0.2215	861.1	0.4945
318.15 K, m1 = 0.2681	863.1	0.5
323.15 K, m1 = 0.0334	847.7	0.4467
323.15 K, m1 = 0.0889	850.1	0.4489
323.15 K, m1 = 0.1332	852	0.4528
323.15 K, m1 = 0.1778	853.9	0.4566
323.15 K, m1 = 0.2215	855.8	0.461
323.15 K, m1 = 0.2681	857.8	0.4647
328.15 K, m1 = 0.0334	842.1	0.4206
328.15 K, m1 = 0.0889	844.5	0.4235
328.15 K, m1 = 0.1332	846.4	0.4266
328.15 K, m1 = 0.1778	848.3	0.4318
328.15 K, m1 = 0.2215	850.2	0.4347
328.15 K, m1 = 0.2681	852.2	0.4388
333.15 K, m1 = 0.0334	836.8	0.3946
333.15 K, m1 = 0.0889	839.2	0.3967
333.15 K, m1 = 0.1332	841.1	0.4003
333.15 K, m1 = 0.1778	843	0.4069
333.15 K, m1 = 0.2215	844.9	0.4084
333.15 K, m1 = 0.2681	846.9	0.4121

CC1=CC(=O)c2ccccc2C1=O [2-methyl-1,4-naphthalenedione] + Cc1ccccc1C
Settings	mass density [kg/m3]	viscosity [mPa·s]
303.15 K, m1 = 0.0436	873.9	0.7432
303.15 K, m1 = 0.0884	875.8	0.7496
303.15 K, m1 = 0.1326	877.7	0.7581
303.15 K, m1 = 0.1767	879.6	0.7658
303.15 K, m1 = 0.2215	881.6	0.7765
303.15 K, m1 = 0.2656	883.5	0.7833
308.15 K, m1 = 0.0436	869.5	0.6988
308.15 K, m1 = 0.0884	871.4	0.7021
308.15 K, m1 = 0.1326	873.3	0.7081
308.15 K, m1 = 0.1767	875.2	0.7159
308.15 K, m1 = 0.2215	877.2	0.726
308.15 K, m1 = 0.2656	879.1	0.7348
313.15 K, m1 = 0.0436	865.8	0.6532
313.15 K, m1 = 0.0884	867.7	0.6592
313.15 K, m1 = 0.1326	869.6	0.6687
313.15 K, m1 = 0.1767	871.5	0.6742
313.15 K, m1 = 0.2215	873.5	0.681
313.15 K, m1 = 0.2656	875.4	0.6888
318.15 K, m1 = 0.0436	861.5	0.6212
318.15 K, m1 = 0.0884	863.4	0.6256
318.15 K, m1 = 0.1326	865.3	0.6319
318.15 K, m1 = 0.1767	867.2	0.6407
318.15 K, m1 = 0.2215	869.2	0.6473
318.15 K, m1 = 0.2656	871.1	0.6525
323.15 K, m1 = 0.0436	857.3	0.5792
323.15 K, m1 = 0.0884	859.2	0.5832
323.15 K, m1 = 0.1326	861.1	0.5905
323.15 K, m1 = 0.1767	863	0.5967
323.15 K, m1 = 0.2215	865	0.6011
323.15 K, m1 = 0.2656	866.9	0.6087
328.15 K, m1 = 0.0436	853	0.5498
328.15 K, m1 = 0.0884	854.9	0.5531
328.15 K, m1 = 0.1326	856.8	0.5601
328.15 K, m1 = 0.1767	858.7	0.5665
328.15 K, m1 = 0.2215	860.7	0.5706
328.15 K, m1 = 0.2656	862.6	0.5773
333.15 K, m1 = 0.0436	848.9	0.5177
333.15 K, m1 = 0.0884	850.8	0.5202
333.15 K, m1 = 0.1326	852.7	0.5277
333.15 K, m1 = 0.1767	854.6	0.5309
333.15 K, m1 = 0.2215	856.6	0.5358
333.15 K, m1 = 0.2656	858.5	0.5412
